Data taken from US20030232102A1, “Total glycosides of paeony, method to prepare the same and uses thereof” (priority 2001, published 2003).

Test system: patients with rheumatoid arthritis
Experiment: Phase II clinical study in rheumatoid arthritis: effectiveness (symptoms, physical examination, comprehensive evaluation)
Format: in vivo, human
Parameters: ESR Reduced to norm., % of cases / CRP Reduced to Norm., % of cases / RF Reduced to norm., % of cases: concentration or dose not given beside the values
Conditions: for AGS 50% increased, % of cases / AGS 50% increased, cases / CRP 50% reduced, % of cases / CRP 50% reduced, cases / CRP Reduced to Norm., % of cases / CRP Reduced to Norm., cases / ESR 50% reduced, % of cases / ESR 50% reduced, cases / ESR Reduced to norm., % of cases / ESR Reduced to norm., cases / ITJ 50% reduced, % of cases / ITJ 50% reduced, cases / ITJ Disappeared, % of cases / ITJ Disappeared, cases / MR 50% reduced, % of cases / MR 50% reduced, cases / MR Disappeared, % of cases / MR Disappeared, cases / NSJ 50% reduced, % of cases / NSJ 50% reduced, cases / NSJ Disappeared, % of cases / NSJ Disappeared, cases / RF 2 dilutions lower, % of cases / RF 2 dilutions lower, cases / RF Reduced to norm., cases: double blinded
Description: It was a multiple-centered, randomized, parallel, positive controlled Phrase II clinical study.
All clinical studies except the above mentioned 120 cases were conducted in a single-blind condition.
1) Age 18˜65, male or female who agreed to the investigational treatment for 12 weeks to 6 months. History of rheumatoid arthritis was within 3 years.
2) Documented Rheumatoid Arthritis based on a diagnostic criteria of 1987 Revised ARA Criteria for the Classification of Rheumatoid Arthritis
3) Diagnosis of a typical active stage of RA: A patient is said to be on an active stage of RA if he or she has satisfied at least 4 of the following 5 items.
2) Patient who quitted the treatment for the ineffectiveness 7 days after the start of administration was included in the efficacy analysis. Patient who quitted the treatment for the side effects was not included in the efficacy analysis but the safety analyses.
1) The placebo run-in period: Seven days before administration, the selected patients stopped using NSAIDs and took a placebo instead.
4) For the double-blinded study, patients in both groups would be given capsules and tablets in same shapes, odors and amount. Placebo of capsule or tablet were included. Neither doctors nor patients can tell the group of treatment from the other.
5) No analgesics, anti-inflammation drugs, immune regulatory agents or muscle relaxants were allowed during the period of study. Acetaminophen could be used when necessary. If a physical therapy was started before enrollment, it was allowed to be continued, yet, it should be taken all the way during the period of clinical study.
1) Pain at rest: patients were asked to scale the degree of pain with a ruler [drawing 1]
2) Morning stiffness: Patients were requested to make notes on duration of their morning joint stiffness, a time span from its appearance to recovery in minutes every morning. The doctors should evaluate their record sheets by questioning them. For example “Do you fell stiff in any of your joints? (today, these 2 days)” When get a “yes” in answer, then “when did you get up today?” and “when does the stiffness be gone?”
3) Swelling of joints: Take count of the index of joint swelling by summing up the degree number of each joint.
0=normal; 1=swelling soft tissues (synovium) without hydrarthrus; 2=swelling soft tissues (synovium) with hydrarthrus.
4) Tenderness of joints: Take count of the index of joint tenderness by summing up the degree number of each joint:
5) Grip strength: Fold the arm belt of a sphygmomanometer twice and seal it in a small cloth bag suitable for a hand to hold. Aerates the belt in pressure of 20 mm Hg. Patients were asked to grip the bag with their not braced left and right hand, the grip strength is the average pressures in mm Hg for three times.
6) Time consumed for a 15 meters' walk (Seconds): Time started from a calm standing to the final of 15 meters. The average of three times.
7) General joint function (criteria of ARA):
8) Self-scoring and physician's grading on disease conditions: Both patients and doctors were required to submit their score sheet every time on follow-up survey. The scoring was made upon following criteria:
9) Patient's general condition: condition on the physical strength, sleep and appetite.
No effect: less than 30% improvement in symptoms and physical signs.
Improved: About 50% improvement in symptoms and physical signs (including general conditions in physical strength, sleep and appetite).

[1] = double blind, n = 60 per group, 4 weeks
[2] = double blind, n = 60 per group, 8 weeks
[3] = double blind, n = 60 per group, 12 weeks

CN(Cc1cnc2nc(N)nc(N)c2n1)c1ccc(C(=O)N[C@@H](CCC(=O)O)C(=O)O)cc1 [MTX, Methotrexate]
Effective rate (4 weeks): 47.2%
Overall effectiveness: Improved, % of patients (4 weeks): 36.6%
Overall effectiveness: Improved, number of patient (4 weeks): 52
Overall effectiveness: No effect, % of patients (4 weeks): 52.8%
Overall effectiveness: No effect, number of patient (4 weeks): 75
Overall effectiveness: Obv. improved, % of patients (4 weeks): 10.6%
Overall effectiveness: Obv. improved, number of patient (4 weeks): 15
Effective rate (8 weeks): 64.8%
Overall effectiveness: Improved, % of patients (8 weeks): 31.7%
Overall effectiveness: Improved, number of patient (8 weeks): 45
Overall effectiveness: No effect, % of patients (8 weeks): 35.2%
Overall effectiveness: No effect, number of patient (8 weeks): 50
Overall effectiveness: Obv. improved, % of patients (8 weeks): 33.1%
Overall effectiveness: Obv. improved, number of patient (8 weeks): 47
Effective rate (12 weeks): 77.5%
Overall effectiveness: Improved, % of patients (12 weeks): 28.9%
Overall effectiveness: Improved, number of patient (12 weeks): 41
Overall effectiveness: No effect, % of patients (12 weeks): 22.5%
Overall effectiveness: No effect, number of patient (12 weeks): 32
Overall effectiveness: Obv. improved, % of patients (12 weeks): 48.6%
Overall effectiveness: Obv. improved, number of patient (12 weeks): 69
Effective rate (24 weeks): 81.7%
Overall effectiveness: Improved, % of patients (24 weeks): 10.0%
Overall effectiveness: Improved, number of patient (24 weeks): 6
Overall effectiveness: No effect, % of patients (24 weeks): 18.3%
Overall effectiveness: No effect, number of patient (24 weeks): 11
Overall effectiveness: Obv. improved, % of patients (24 weeks): 71.7%
Overall effectiveness: Obv. improved, number of patient (24 weeks): 43
Changes in RA perimeters: GS-L (double blind, 4 weeks, mean): 12.70
Changes in RA perimeters: GS-R (double blind, 4 weeks, mean): 12.05
Changes in RA perimeters: ISJ (double blind, 4 weeks, mean): 2.47
Changes in RA perimeters: ITJ (double blind, 4 weeks, mean): 6.83
Changes in RA perimeters: MR (double blind, 4 weeks, mean): 33.52
Changes in RA perimeters: NSJ (double blind, 4 weeks, mean): 1.92
Changes in RA perimeters: NTJ (double blind, 4 weeks, mean): 3.53
Changes in RA perimeters: PR (double blind, 4 weeks, mean): 1.33
Changes in RA perimeters: GS-L (double blind, 8 weeks, mean): 17.55
Changes in RA perimeters: GS-R (double blind, 8 weeks, mean): 16.68
Changes in RA perimeters: ISJ (double blind, 8 weeks, mean): 4.03
Changes in RA perimeters: ITJ (double blind, 8 weeks, mean): 9.53
Changes in RA perimeters: MR (double blind, 8 weeks, mean): 41.03
Changes in RA perimeters: NSJ (double blind, 8 weeks, mean): 2.97
Changes in RA perimeters: NTJ (double blind, 8 weeks, mean): 5.52
Changes in RA perimeters: PR (double blind, 8 weeks, mean): 1.94
Changes in RA perimeters: GS, L (double blind, 12 weeks, mean): 22.03
Changes in RA perimeters: GS, R (double blind, 12 weeks, mean): 21.85
Changes in RA perimeters: ITJ (double blind, 12 weeks, mean): 11.59
Changes in RA perimeters: MR (double blind, 12 weeks, mean): 46.08
Changes in RA perimeters: NSJ (double blind, 12 weeks, mean): 3.92
Changes in RA perimeters: NTJ (double blind, 12 weeks, mean): 6.73
Changes in RA perimeters: PR (double blind, 12 weeks, mean): 2.60
Changes in RA perimeters: TSJ (double blind, 12 weeks, mean): 5.08
Effective rate [1]: 43.3%
Improved, % of patients [1]: (31.7%)
Improved, number of patients [1]: 19
No effect, % of patients [1]: (56.7%)
No effect, number of patients [1]: 34
Obviously improved, % of patients [1]: (11.7%)
Obviously improved, number of patients [1]: 7
Effective rate [2]: 66.7%
Improved, % of patients [2]: (31.7%)
Improved, number of patients [2]: 19
No effect, % of patients [2]: (33.3%)
No effect, number of patients [2]: 20
Obviously improved, % of patients [2]: (35.0%)
Obviously improved, number of patients [2]: 21
Effective rate [3]: 75.0%
Improved, % of patients [3]: (26.7%)
Improved, number of patients [3]: 16
No effect, % of patients [3]: (25.0%)
No effect, number of patients [3]: 15
Obviously improved, % of patients [3]: (48.33%)
Obviously improved, number of patients [3]: 29
AGS 50% increased, % of cases (4 weeks): 5.0%
AGS 50% increased, cases (4 weeks): 3
CRP 50% reduced, % of cases (4 weeks): 16.7%
CRP 50% reduced, cases (4 weeks): 10
CRP Reduced to Norm., % of cases (4 weeks): 6.7%
CRP Reduced to Norm., cases (4 weeks): 4
ESR 50% reduced, % of cases (4 weeks): 30.0%
ESR 50% reduced, cases (4 weeks): 18
ESR Reduced to norm., % of cases (4 weeks): 26.7%
ESR Reduced to norm., cases (4 weeks): 16
ITJ 50% reduced, % of cases (4 weeks): 31.7%
ITJ 50% reduced, cases (4 weeks): 19
ITJ Disappeared, % of cases (4 weeks): 3.3%
ITJ Disappeared, cases (4 weeks): 2
MR 50% reduced, % of cases (4 weeks): 38.3%
MR 50% reduced, cases (4 weeks): 23
MR Disappeared, % of cases (4 weeks): 25.0%
MR Disappeared, cases (4 weeks): 15
NSJ 50% reduced, % of cases (4 weeks): 40.0%
NSJ 50% reduced, cases (4 weeks): 24
NSJ Disappeared, % of cases (4 weeks): 15.0%
NSJ Disappeared, cases (4 weeks): 9
RF 2 dilutions lower, % of cases (4 weeks): 13.3%
RF 2 dilutions lower, cases (4 weeks): 8
RF Reduced to norm., cases (4 weeks): 0
AGS 50% increased, % of cases (8 weeks): 10.0%
AGS 50% increased, cases (8 weeks): 6
CRP 50% reduced, % of cases (8 weeks): 26.7%
CRP 50% reduced, cases (8 weeks): 16
CRP Reduced to Norm., % of cases (8 weeks): 25.0%
CRP Reduced to Norm., cases (8 weeks): 15
ESR 50% reduced, % of cases (8 weeks): 41.7%
ESR 50% reduced, cases (8 weeks): 25
ESR Reduced to norm., % of cases (8 weeks): 31.7%
ESR Reduced to norm., cases (8 weeks): 19
ITJ 50% reduced, % of cases (8 weeks): 43.3%
ITJ 50% reduced, cases (8 weeks): 26
ITJ Disappeared, % of cases (8 weeks): 3.3%
ITJ Disappeared, cases (8 weeks): 2
MR 50% reduced, % of cases (8 weeks): 53.3%
MR 50% reduced, cases (8 weeks): 32
MR Disappeared, % of cases (8 weeks): 21.7%
MR Disappeared, cases (8 weeks): 13
NSJ 50% reduced, % of cases (8 weeks): 55.0%
NSJ 50% reduced, cases (8 weeks): 33
NSJ Disappeared, % of cases (8 weeks): 20.0%
NSJ Disappeared, cases (8 weeks): 12
RF 2 dilutions lower, % of cases (8 weeks): 36.7%
RF 2 dilutions lower, cases (8 weeks): 22
RF Reduced to norm., cases (8 weeks): 0
AGS 50% increased, % of cases (12 weeks): 15.0%
AGS 50% increased, cases (12 weeks): 9
CRP 50% reduced, % of cases (12 weeks): 33.3%
CRP 50% reduced, cases (12 weeks): 20
CRP Reduced to Norm., % of cases (12 weeks): 8.3%
CRP Reduced to Norm., cases (12 weeks): 5
ESR 50% reduced, % of cases (12 weeks): 51.7%
ESR 50% reduced, cases (12 weeks): 31
ESR Reduced to norm., % of cases (12 weeks): 33.3%
ESR Reduced to norm., cases (12 weeks): 20
ITJ 50% reduced, % of cases (12 weeks): 51.7%
ITJ 50% reduced, cases (12 weeks): 31
ITJ Disappeared, % of cases (12 weeks): 15.0%
ITJ Disappeared, cases (12 weeks): 9
MR 50% reduced, % of cases (12 weeks): 60.0%
MR 50% reduced, cases (12 weeks): 36
MR Disappeared, % of cases (12 weeks): 25.0%
